# Publication PMC9051593, “Glucagonlike Peptide-1 Receptor Imaging in Individuals with Type 2 Diabetes” (Journal of Nuclear Medicine, 2022)
# Where two headings read alike, the source gives them in different places.
# Columns and labels:
# [1] = set-up: species or system human; settings: in vivo; for Plasma-to-blood ratio: human, iv, 0.5 MBq/kg
# Description: Dynamic PET was initiated at administration and continued for 60 min. Blood sampling for glucose was performed before and during the scan as a safety precaution, as exendin4 can stimulate insulin secretion at pharmacologic doses. For 3 individuals, arterial sampling was performed at 5, 30, and 60 min after ^68Ga-exendin4 administration to measure the radioactivity in whole blood and plasma and to determine the metabolic stability of the tracer (the methods are shown in the supplemental materials, available at http://jnm.snmjournals.org) (17). Abdominal tissues of interest, including pancreas (target tissue), aorta (input signal), kidney (excretion), and spleen and erector spinae muscle (negative reference tissues) were manually segmented on coregistered PET/CT images using […] software, version 2.9 (Turku PET Center). The aorta was delineated by segmenting single voxels fully within the lumen of the descending aorta. The arterial plasma image-derived input function was generated by correcting the aorta signal for plasma-to-whole-blood partitioning and for the percentage of intact ^68Ga-exendin4 during the scan (based on a population estimate).
# [2] = test system: GLP1R; settings: in words, cited from earlier work
# Description: Exendin4 is a synthetic peptide that binds to GLP1R with nanomolar affinity and high specificity ([4]). […] In the absence of suitable antagonists, agonists such as exendin4 can be used as PET tracers, but care must be taken to avoid unwanted pharmacologic effects. […] Doses of around 0.5 µg/kg elicit up to 50% blocking of the signal.
# [3] = test system: GLP1R; settings: in words; cited from earlier work
# Description: In the absence of suitable antagonists, agonists such as exendin4 can be used as PET tracers, but care must be taken to avoid unwanted pharmacologic effects. […] Doses of around 0.5 µg/kg elicit up to 50% blocking of the signal.
# [4] = target: T1, GLP1R (Macaca fascicularis, UniProt F8V479); test: 68Ga-exendin4 PET dose escalation (self-blocking) study in NHP pancreas, Logan Vt; format: in vivo, cynomolgus NHPs; settings: Vt of 68Ga-exendin4 vs coinjected unlabeled precursor peptide dose, 12 scans, estimated
# T1 construct: from tissue; host or cells: pancreas of living cynomolgus monkeys (in vivo PET)
# T1 sequence (F8V479 24-463): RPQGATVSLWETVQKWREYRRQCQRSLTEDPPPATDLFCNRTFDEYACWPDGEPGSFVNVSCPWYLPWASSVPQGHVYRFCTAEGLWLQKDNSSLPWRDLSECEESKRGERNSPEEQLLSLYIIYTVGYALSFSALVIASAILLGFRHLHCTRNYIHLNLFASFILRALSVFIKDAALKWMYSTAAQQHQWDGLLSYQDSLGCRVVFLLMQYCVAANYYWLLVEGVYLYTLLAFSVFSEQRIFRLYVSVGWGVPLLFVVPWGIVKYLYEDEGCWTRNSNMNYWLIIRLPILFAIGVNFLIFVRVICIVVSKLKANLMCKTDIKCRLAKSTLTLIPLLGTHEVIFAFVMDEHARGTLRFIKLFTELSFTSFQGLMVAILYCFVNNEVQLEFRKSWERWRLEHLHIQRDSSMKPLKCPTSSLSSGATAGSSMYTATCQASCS
# Description: A ^68Ga-exendin4 PET/CT imaging study on healthy cynomolgus NHPs was in part reported and described in detail previously ([5]). Briefly, NHPs were scanned by ^68Ga-exendin4 PET using a dose escalation study design in which several examinations were performed, several hours apart, over the course of one or several experimental days. Each subsequent scan entailed a higher peptide mass and radioactive dose to minimize influence from the preceding scan (Table 1). The resulting dataset enabled analysis of the self-blocking effect of the increasing amounts of coinjected unlabeled exendin4 precursor peptide.
# Previously, only the simplified SUV analysis of 3 of the NHPs (8 scans) was reported ([5]). In preparation for the design of the clinical study, to better understand the peptide doses at which self-blocking starts to occur, we reanalyzed the dynamic NHP data from all 12 scans by graphical analysis using an image-derived blood plasma input.
# Pancreas and other tissues of interest (such as spleen as a negative reference tissue) were delineated using PMOD, version 4.0 (PMOD Technologies). The PET signal for each tissue and time frame was corrected for the injected amount, and the image-derived input function was extracted by segmenting voxels fully within the lumen of the descending aorta as identified on early PET frames and coregistered CT projections. […]
# [5] = target: T2, GLP1R in the pancreas (Homo sapiens, UniProt P43220); format: in vivo; settings: humans with T2D, peptide dose less than 0.2 µg/kg; no negative correlation between peptide mass dose and net Ki
# T2 construct: underwent PET/CT scanning for GLP1R availability in the pancreas (^68Ga-exendin4); from tissue; host or cells: pancreas of living individuals with type 2 diabetes (in vivo PET/CT)
# T2 sequence (P43220 24-463): as the sequence (F8V479 24-463) above, with N112S, S120F, G202S, V205L, F237L, R241W, V249I counted along it
# Description: The PET assessments were performed 3 h after a standardized meal followed by fasting, to minimize the variability in GLP1 levels at the time of scanning. The individuals were examined over the abdomen with a Discovery MI PET/CT scanner (20-cm field of view; GE Healthcare). Low-dose CT was performed for attenuation correction and anatomic coregistration of PET images. The dose of the CT scan was limited by dosimetry considerations, given that each individual underwent up to 4 PET/CT examinations over the entire clinical study. A 0.5 MBq/kg target dose of ^68Ga-exendin4 (0.46 ± 0.03 MBq/kg, corresponding to 0.14 ± 0.04 μg of peptide per kilogram) was administered intravenously as a bolus. The amount of administered ^68Ga-exendin4 was based primarily on limiting the associated dose of DO3A-VS-exendin4 precursor peptide to below 0.2 μg/kg. This limit was imposed to minimize any self-blocking, and the cutoff was determined from the NHP dose escalation studies. Dynamic PET was initiated at administration and continued for 60 min. […] For 3 individuals, arterial sampling was performed at 5, 30, and 60 min after ^68Ga-exendin4 administration to measure the radioactivity in whole blood and plasma and to determine the metabolic stability of the tracer (the methods are shown in the supplemental materials, available at http://jnm.snmjournals.org) (17). […]
substance,measurement,setting,value
^68Ga-DO3A-VS-exendin4 [^68Ga-exendin4],Plasma-to-blood ratio,[1]; 5 min,1.76 ± 0.06 1/1
same,Plasma-to-blood ratio,[1]; 0.5 h,1.80 ± 0.05 1/1
same,Plasma-to-blood ratio,[1]; 1 h,1.79 ± 0.05 1/1
same,plasma partitioning,[1],≈ 1.8
same,affinity for GLP1R,[2]; radiolabeled tracer,nanomolar range
exendin4 [reference compound],affinity for GLP1R,[2],nanomolar
same,GLP1R agonist potency,[3],subnanomolar
DO3A-VS-exendin4,dose inducing a 50% decrease in binding (in vivo half-maximal inhibitory concentration),[4],approximately 0.45 µg/kg
same,self-blocking,[5],negligible
